In patent US10780072B2, “Methods for inhibiting conversion of choline to trimethylamine (TMA)” (The Procter & Gamble Company, priority 2015, dated 2020) one finds IC50 data, which are given here for 42 compounds.

pIC50: −log10 of the molar value.

The test system of the assay is Proteus mirabilis 29906 (Pm) lysate. Description: Inhibition of TMA formation from choline (d9-choline to d9-TMA) in Proteus mirabilis lysate, LC-MS/MS. Conditions: Pm lysate 1.5 mg/mL protein, 50 μM d9-choline chloride, 37° C. for two hours; read-out: TMA Inhibition (IC50, mol/L). It is filed as biochemical.
On to `C[C@H](N=C=S)c1ccccc1` [Compound 26, (S)-(+)-alpha- Methylbenzyl isothiocyanate], for which the pIC50 was 4.68.

In the case of `S=C=NC(c1ccccc1)c1ccccc1` [Compound 38, Benzhydryl isothiocyanate], the pIC50 was 2.81.

As to `CCC(C)N=C=S` (stereo not drawn) [Compound 10, sec-butyl isothiocyanate], the pIC50 is 3.89.

As for `O=C(N=C=S)c1ccccc1` [Compound 21, Benzoyl isothiocyanate], the pIC50 was 3.71.

Regarding Ethyl isothiocyanate [Compound 11], the pIC50 was 4.54.

Regarding `S=C=NCCN1CCOCC1` [Compound 25, 2-(4-Morpholino) ethyl isothiocyanate], the pIC50 is 4.87.

With `COc1cccc(N=C=S)c1` [Compound 34, 3-Methoxy-phenyl isothiocyanate], the pIC50 is 4.05.

Consider `S=C=Nc1cccc2ccccc12` [Compound 19, 1-Naphthyl isothiocyanate], for which the pIC50 is 2.68.

As for `CCCCCC12CCC(C(=O)Oc3ccc(N=C=S)cc3)(CC1)CC2` [Compound 37, 4-Isothio-cyanato-phenyl 4-pentyl-bicyclo [2.2.2] octane-1-carboxylate], the pIC50 is 1.31.

`S=C=NCCc1ccc(Cl)cc1` [Compound 9, 2-(4-Chloro-phenethyl) isothiocyanate]: the pIC50 is 4.52.

As to `CC(C)(C)N=C=S` [Compound 2, tert-Butyl isothiocyanate], the pIC50 is 2.26.

With `CN(C)CCCN=C=S` [Compound 41, 3-isothio-cyanato-N,N-dimethyl-1-Propanamine], the pIC50 is 4.94.

Regarding `CCc1ccc(N=C=S)cc1` [Compound 31, 4-Ethylphenyl isothiocyanate], the pIC50 was 3.42.

As for `S=C=NCC1CCCCC1` [Compound 8, Cyclohexyl- methyl isothiocyanate], the pIC50 is 3.68.

In the case of `CCN(CC)CCN=C=S` [Compound 40, Ethanamine, N,N-diethyl-2-isothio-cyanato], the pIC50 was 5.06.

Consider `CC(C)(C)OC(=O)NCCCCN=C=S` [Compound 22, N-Boc-4-isothio-cyanatobutyl-amine], for which the pIC50 is 4.19.

In the case of `CCCCCN=C=S` [Compound 6, 1-pentyl isothiocyanate], the pIC50 was 4.38.

`COc1ccccc1N=C=S` [Compound 32, 2-Methoxy-phenyl isothiocyanate]: the pIC50 was 3.72.

Turning to `CCOC(=O)CN=C=S` [Compound 36, Ethyl isothio- cyanato- acetate], the pIC50 is 5.40.

As to `COc1ccc(C)cc1N=C=S` [Compound 1, 2-Methoxy-5-methylphenyl isothiocyanate], the pIC50 was 3.13.

Turning to Methyl isothiocyanate [Compound 14], the pIC50 is 4.70.

In the case of `CC(C)(C)OC(=O)Nc1ccc(N=C=S)cc1` [Compound 23, N-Boc-4-isothio-cyanatoaniline], the pIC50 was 2.60.

As to `CN(C)CCN=C=S` [Compound 42, 2-Isothio-cyanato-N,N-dimethyl-ethanamine], the pIC50 is 5.12.

As to `S=C=NC1CCCCC1` [Compound 30, Cyclohexyl isothiocyanate], the pIC50 was 4.25.

As to `CC(C)CN=C=S` [Compound 12, Isobutyl isothiocyanate], the pIC50 was 4.13.

Consider `CC(C)CCN=C=S` [Compound 16, 1-isothio-cyanato-3-methyl-butane], for which the pIC50 is 4.18.

`S=C=NCc1ccccc1` [Compound 5, Benzyl isothiocyanate]: the pIC50 is 5.52.

As for `S=C=NCCCN1CCOCC1` [Compound 24, 3-(4-Morpholino) propyl isothiocyanate], the pIC50 is 4.80.

Turning to `CC(C)N=C=S` [Compound 15, Isopropyl isothiocyanat], the pIC50 was 4.01.

For the compound `S=C=NCCN1CCCCC1` [Compound 35, 2-Piperidino-ethyl isothiocyanate], the pIC50 is 4.84.

`CCN(CC)CCCN=C=S` [Compound 7, 3-(Diethyl-amino) propyl isothiocyanate]: the pIC50 was 5.81.

For `Cc1cccc(N=C=S)c1` [Compound 3, m-Tolyl isothiocyanate], the pIC50 was 3.61.

For `S=C=Nc1ccc(Br)cc1` [Compound 20, 4-Bromo-phenyl isothiocyanate], the pIC50 was 4.05.

`C[N+](C)(C)CCN=C=S` [Compound 45, 2-Isothio-cyanato-N,N,N-trimethyl-ethana-minium iodide]: the pIC50 is 5.89.

In the case of `CC(=O)O[C@H]1[C@H](OC(C)=O)[C@@H](N=C=S)OC[C@H]1OC(C)=O` [Compound 39, 2,3,4-Tri-O-acetyl-α-D-arabino-pyranosyl isothiocyanate], the pIC50 is 3.66.

With `S=C=NC1CC2CCC1C2` (stereo not drawn) [Compound 29, exo-2-Norbornyl-isothiocyanate], the pIC50 is 4.32.

Take `CSc1ccc(N=C=S)cc1` [Compound 4, 4-(Methylthio) phenyl isothiocyanate]: the pIC50 was 4.13.

As for `COc1ccc(OC)c(N=C=S)c1` [Compound 33, 2,5-Di-methoxy-phenyl isothiocyanate], the pIC50 was 3.82.

As for `CCCCN=C=S` [Compound 13, Butyl isothiocyanate], the pIC50 is 4.30.

In the case of `S=C=Nc1ccccc1` [Compound 18, Phenyl isothiocyanate], the pIC50 was 3.92.

Take `CCC(C)CN=C=S` (stereo not drawn) [Compound 44, Butane, 1-isothio-cyanato-2-methyl-]: the pIC50 is 3.98.

For `S=C=Nc1ccc(Cl)cc1` [Compound 27, 4-Chloro-phenyl isothiocyanate], the pIC50 is 3.97.
